In patent US10981900B2, “Spiro compound and use thereof” (MEDSHINE DISCOVERY INC., priority 2017, dated 2021):
Like-named read-outs stand apart in the source and are kept apart here.

What was measured:
S1P1 receptor = target: T1, S1P1 receptor (Homo sapiens, UniProt P21453); experiment: S1P1 receptor agonistic activity assay (PathHunter cell strain, chemiluminescent signal detection); type: cell-based; details: PathHunter cells, agonist mode, 37° C. for 90-180 minutes
T1 construct: expressed in transfected cells
Description: 1. A PathHunter cell strain was thawed according to standard procedures;
2. The cell was seeded in 20 μl 384-well microplates and incubated at 37° C. for an appropriate time.
1. For an agonist assay, the cell was incubated with the sample to be tested to initiate a reaction;
2. The stock to be tested is diluted 5 folds to be a buffer solution;
3. The 5-fold diluted solution (5 μL) was added to the cells and incubated at 37° C. for 90-180 minutes. The solvent concentration was 1%.
1. 12.5 μL or 15 μL of PathHunter detection reagent (50 vol. %) was added in one portion and then incubated for 1 hour at room temperature to generate a detection signal;
2. The microplate was read using a PerkinElmer Envision™ instrument for chemiluminescent signal detection.
1. Compound activity analysis was performed using a CBIS Data Analysis Kit;
2. Calculation formula: % activity=100%×(average RLU of sample to be test-average RLU of solvents)/(average maximum control ligand−average RLU of solvents)

[1] = Evaluation of compounds' pharmacokinetics in SD rats in vivo (intravenous injection and oral administration); parameters: species or system Sprague Dawley rats; details: single intravenous injection and oral administration; for AUC: read-out: Concentration integral AUC; for half-life: read-out: Half life T1/2 (converted); for bioavailability: oral, read-out: Bioavailability F
Description: Objective: To test the pharmacokinetics of compounds in SD rats in vivo.
Sprague Dawley rats (male, 200-300 g, 7-9 weeks old, Shanghai Slack)
The pharmacokinetics profile of the compound in rodent after intravenous injection and oral administrations was tested using a standard protocol. In the assay, the candidate compound was formulated into a clear solution, and was given to the rats through a single intravenous injection and oral administration. The vehicles for the intravenous injection and oral administration were an aqueous hydroxypropyl β-cyclodextrin solution or dimethyl sulfoxide in aqueous PEG400 solution in a proper proportion. The whole blood samples were collected within 24 hours, centrifuged at 3000 g for 15 minutes, and plasma samples were obtained by separating the supernatant. 4 times volume of acetonitrile solution containing an internal standard was added to precipitate proteins. After centrifugation, the supernatant was collected, to which an equal volume of water was added, and further centrifuged to collect the supernatant. The LC-MS/MS method was used to quantitatively analyze the plasma concentration, and the pharmacokinetics parameters, such as peak concentration, peak time, clearance rate, half-life, area under the curve, and bioavailability were calculated.

[2] = male, Sprague-Dawley, rat, plasma, 2 mg/kg, 2 mpk
[3] = male, Sprague-Dawley, rat, plasma, 3 mg/kg, 3 mpk
[4] = male, Sprague-Dawley, rat, plasma, intravenous, 3 mg/kg, 3 mpk, read-out: Clearance

T1 sequence (P21453 whole entry): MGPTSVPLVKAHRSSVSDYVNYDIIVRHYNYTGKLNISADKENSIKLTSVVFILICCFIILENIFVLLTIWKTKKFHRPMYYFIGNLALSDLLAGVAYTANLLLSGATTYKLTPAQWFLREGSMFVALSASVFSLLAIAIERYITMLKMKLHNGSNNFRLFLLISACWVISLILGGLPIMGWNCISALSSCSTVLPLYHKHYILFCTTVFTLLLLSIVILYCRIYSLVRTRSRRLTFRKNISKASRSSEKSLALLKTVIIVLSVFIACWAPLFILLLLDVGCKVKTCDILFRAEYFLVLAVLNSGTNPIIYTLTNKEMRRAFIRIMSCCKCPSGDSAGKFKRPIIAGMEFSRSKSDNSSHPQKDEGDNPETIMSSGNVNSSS

Row | EC50 (S1P1 receptor) | also measured | SMILES
1 | > 100 nM |  | O=C1CC2(CCc3c(-c4noc(-c5cccc(Cl)c5)n4)cccc32)CN1CCO (stereo not drawn) [Example 2]
2 | > 100 nM |  | N#Cc1ccccc1-c1nc(-c2cccc3c2CCC32CC(=O)N(CCO)C2)no1 (stereo not drawn) [Example 18]
3 | > 100 nM |  | N#Cc1ccc(-c2nc(-c3cccc4c3CCC43CC(=O)N(CCO)C3)no2)cc1 (stereo not drawn) [Example 7]
4 | ≤ 10 nM |  | CC(C)Oc1ccc(-c2nc(-c3cccc4c3CCC43CC(=O)N(CC(=O)O)C3)no2)cc1C#N (stereo not drawn) [Example 28]
5 | 10 to 100 nM |  | CC(C)Oc1ccc(-c2nc(-c3cccc4c3CCC43CC(=O)N(CCO)C3)no2)cc1S(C)(=O)=O (stereo not drawn) [Example 23]
6 | ≤ 10 nM |  | COCCN1CC2(CCc3c(-c4noc(-c5ccc(OC(C)C)c(C#N)c5)n4)cccc32)CC1=O (stereo not drawn) [Example 24]
7 | ≤ 10 nM |  | CC(C)Oc1ccc(-c2nnc(-c3cccc4c3CCC43CC(=O)N(CCO)C3)s2)cc1C#N (stereo not drawn) [Example 38]
8 | > 100 nM |  | O=C1CC2(CCc3c(-c4noc(-c5ccccc5Cl)n4)cccc32)CN1CCO (stereo not drawn) [Example 3]
9 | > 100 nM |  | COc1ccccc1-c1nc(-c2cccc3c2CCC32CC(=O)N(CCO)C2)no1 (stereo not drawn) [Example 6]
10 | ≤ 10 nM |  | CC(C)Oc1ccc(-c2nc(-c3cccc4c3CCC43CC(=O)N(CCO)C3)no2)cc1OC(F)F (stereo not drawn) [Example 10]
11 | ≤ 10 nM |  | CC(C)Oc1ccc(-c2nc(-c3cccc4c3CCC43CC(=O)N(CCO)C3)no2)cc1C#N (stereo not drawn) [Example 21 mixture]
12 | 10 to 100 nM |  | CC(C)Oc1ccc(-c2nc(-c3cccc4c3CCC43COC(=O)N3CCO)no2)cc1C#N (stereo not drawn) [Example 37]
13 | ≤ 10 nM |  | CC(C)Oc1ccc(-c2nc(-c3cccc4c3CCC43CCN(C4CC(C(=O)O)C4)C3)no2)cc1C#N (stereo not drawn) [Example 47]
14 | > 100 nM |  | N#Cc1cccc(-c2nc(-c3cccc4c3CCC43CC(=O)N(CCO)C3)no2)c1 (stereo not drawn) [Example 8]
15 | ≤ 10 nM |  | CC(C)Oc1ccc(-c2ncc(-c3cccc4c3CCC43CC(=O)N(CCO)C3)s2)cc1C#N (stereo not drawn) [Example 41]
16 | ≤ 10 nM |  | CC(C)Oc1ccc(-c2nc(-c3cccc4c3CCC43CC(=O)N(CCCCC(=O)O)C3)no2)cc1C#N (stereo not drawn) [Example 29]
17 | 10 to 100 nM |  | CC(C)Oc1ccc(-c2nc(-c3cccc4c3CCC43CC(=O)N(CCN(C)C)C3)no2)cc1C#N (stereo not drawn) [Example 27]
18 | 10 to 100 nM |  | CC(C)Oc1ccc(-c2nc(-c3cccc4c3CCC43CCC(CO)N3)no2)cc1C#N (stereo not drawn) [Example 32]
19 | > 100 nM |  | CC(C)c1ccc(-c2nc(-c3cccc4c3CCC43CC(=O)N(CCO)C3)no2)cc1 (stereo not drawn) [Example 17]
20 | ≤ 10 nM |  | CC(C)Oc1ccc(-c2nc(-c3cccc4c3CCC43CC(=O)N(CCO)C3)no2)cc1Cl (stereo not drawn) [Example 11]
21 | > 100 nM |  | COc1cccc(-c2nc(-c3cccc4c3CCC43CC(=O)N(CCO)C3)no2)c1 (stereo not drawn) [Example 5]
22 | ≤ 10 nM | AUC [1, 2]: 4.35 µM·h; half-life [1, 2]: 99.3 h; clearance ([1]; male, Sprague-Dawley, rat, plasma, intravenous, 2 mg/kg, 2 mpk, read-out: Clearance): 2.52 mL/min/kg; bioavailability [1, 2]: 89.4% | CC(C)Oc1ccc(-c2nc(-c3cccc4c3CCC43CC(=O)N(CCO)C3)no2)cc1C(F)F (stereo not drawn) [Example 9]
23 | 10 to 100 nM |  | CC(C)Oc1ccc(-c2nc(-c3cccc4c3CCC43CCN(CCO)C3=O)no2)cc1C#N (stereo not drawn) [Example 30]
24 | ≤ 10 nM |  | CC(C)Oc1ccc(-c2ncc(-c3cccc4c3CCC43CC(=O)N(CCO)C3)cn2)cc1C#N (stereo not drawn) [Example 44]
25 | > 100 nM |  | O=C1CC2(CCc3c(-c4noc(-c5ccc(OCC6CC6)cc5)n4)cccc32)CN1CCO (stereo not drawn) [Example 19]
26 |  | Bioavailability F ([1]; 3 mpk, 3 mg/kg): 89.6%; Concentration integral AUC ([1]; 3 mpk, 3 mg/kg): 8.483 µM·h; Half life T1/2 ([1]; 3 mpk, 3 mg/kg): 3.22 h; clearance ([1]; 3 mpk, 3 mg/kg): 11.6 mL/min/kg | CC(C)Oc1ccc(-c2nc(-c3cccc4c3CCC43CCN(C4CC(C(=O)O)C4)C3)no2)cc1C#N (single isomer, unassigned) [Example 47 Isomer 4]

Row | EC50 (S1P1 receptor) | also measured | SMILES
27 | ≤ 10 nM |  | CC(C)Oc1ccc(-c2nc(-c3cccc4c3CCC43CC(=O)N(CCO)C3)no2)cc1Br (stereo not drawn) [Example 22]
28 | > 100 nM |  | O=C1CC2(CCc3c(-c4noc(-c5ccc(Cl)cc5)n4)cccc32)CN1CCO (stereo not drawn) [Example 1]
29 |  | AUC [1, 3]: 1.12 µM·h; half-life [1, 3]: 5.24 h; clearance [1, 4]: 46.3 mL/min/kg; bioavailability [1, 3]: 41.6% | CC(C)Oc1ccc(-c2nc(-c3cccc4c3CC[C@@H]4NCCO)no2)cc1C#N [Ozanimod, reference compound]
30 | 10 to 100 nM |  | CC(C)Nc1ncc(-c2nc(-c3cccc4c3CCC43CC(=O)N(CCO)C3)no2)cc1Br (stereo not drawn) [Example 20]
31 | ≤ 10 nM |  | CC(C)Oc1ccc(-c2cnc(-c3cccc4c3CCC43CC(=O)N(CCO)C3)cn2)cc1C#N (stereo not drawn) [Example 45]
32 | ≤ 10 nM | AUC [1, 3]: 12.6 µM·h; half-life [1, 3]: 3.02 h; clearance [1, 4]: 8.65 mL/min/kg; bioavailability [1, 3]: 100% | CC(C)Oc1ccc(-c2nc(-c3cccc4c3CCC43CC(=O)N(CCO)C3)no2)cc1C#N (single isomer, unassigned) [Example 21 isomer 1]
33 | ≤ 10 nM |  | CC(C)Oc1ccc(-c2nc(-c3cccc4c3CCC43CC(=O)N(CCO)C3=O)no2)cc1C#N (stereo not drawn) [Example 36]
34 | > 100 nM |  | Cc1ccc(-c2nc(-c3cccc4c3CCC43CC(=O)N(CCO)C3)no2)cc1 (stereo not drawn) [Example 16]
35 | ≤ 10 nM |  | CC(C)Oc1ccc(-c2nc(-c3cccc4c3CCC43CC(=O)N(CCS(C)(=O)=O)C3)no2)cc1C#N (stereo not drawn) [Example 25]
36 | ≤ 10 nM |  | CC(C)Oc1ccc(-c2nc(-c3cccc4c3CCC43CCN(CCO)C3)no2)cc1C#N (stereo not drawn) [Example 35]
37 | ≤ 10 nM |  | CC(C)Oc1ccc(-c2nc(-c3cccc4c3CCC43CCC(=O)N(CCO)C3)no2)cc1C#N (stereo not drawn) [Example 34]
38 | 10 to 100 nM |  | CC(C)Oc1ccc(-c2ncc(-c3cccc4c3CCC43CC(=O)N(CCO)C3)o2)cc1C#N (stereo not drawn) [Example 42]
39 | > 100 nM |  | CC(C)Oc1ccc(-c2nc(-c3cccc4c3CCC43CC(=O)N(CCO)C3)no2)cc1 (stereo not drawn) [Example 13]
40 |  | Bioavailability F ([1]; 3 mpk, 3 mg/kg): 89.6%; Concentration integral AUC ([1]; 3 mpk, 3 mg/kg): 8.483 µM·h; Half life T1/2 ([1]; 3 mpk, 3 mg/kg): 3.22 h; clearance ([1]; 3 mpk, 3 mg/kg): 11.6 mL/min/kg | CC(C)Oc1ccc(-c2nc(-c3cccc4c3CCC43CC(=O)N(CCO)C3)no2)cc1C#N (single isomer, unassigned) [Example 21 isomer 2]
41 | ≤ 10 nM |  | CC(C)Oc1ccc(-c2nc(-c3cccc4c3CCC43CC(=O)N(CC(=O)N(C)C)C3)no2)cc1C#N (stereo not drawn) [Example 26]
42 | > 100 nM |  | COc1ccc(-c2nc(-c3cccc4c3CCC43CC(=O)N(CCO)C3)no2)cc1 (stereo not drawn) [Example 4]
43 | 10 to 100 nM |  | CC(C)Oc1ccc(-c2ccc(-c3cccc4c3CCC43CC(=O)N(CCO)C3)s2)cc1C#N (stereo not drawn) [Example 43]
44 | > 100 nM |  | O=C1CC2(CCc3c(-c4noc(-c5ccc(OC(F)(F)F)cc5)n4)cccc32)CN1CCO (stereo not drawn) [Example 14]
45 | 10 to 100 nM |  | CC(C)Oc1ccc(-c2nsc(-c3cccc4c3CCC43CC(=O)N(CCO)C3)n2)cc1C#N (stereo not drawn) [Example 39]
46 | > 100 nM |  | CC(C)Oc1ccc(-c2nc(-c3cccc4c3CCC43CC(=O)N(CCO)C3)no2)c(C#N)c1 (stereo not drawn) [Example 12]
47 | ≤ 10 nM |  | CC(C)Oc1ccc(-c2nc(-c3cccc4c3CCCC43CC(=O)N(CCO)C3)no2)cc1C#N (stereo not drawn) [Example 33]
48 | > 100 nM |  | O=C1CC2(CCc3c(-c4noc(-c5ccc(OC(F)F)cc5)n4)cccc32)CN1CCO (stereo not drawn) [Example 15]
49 | 10 to 100 nM |  | CC(C)Oc1ccc(-c2nc(-c3cccc4c3CCC43CCC(=O)N3CCO)no2)cc1C#N (stereo not drawn) [Example 31]
50 | ≤ 10 nM |  | CC(C)Oc1ccc(-c2nc(-c3cccc4c3CCC43CC(=O)N(CCO)C3)ns2)cc1C#N (stereo not drawn) [Example 40]
51 |  | Bioavailability F ([1]; 3 mpk, 3 mg/kg): 48.7%; AUC [1, 3]: 5.66 µM·h; half-life [1, 3]: 3.98 h; clearance [1, 4]: 8.81 mL/min/kg | CC(C)Oc1ccc(-c2nc(-c3cccc4c3CCC43CCN(C4CC(C(=O)O)C4)C3)no2)cc1C#N (single isomer, unassigned) [Example 47 Isomer 3]
52 | ≤ 10 nM |  | CC(C)Oc1ccc(-c2nc(-c3cccc4c3CCC43CCN(CC(=O)O)C3)no2)cc1C#N (stereo not drawn) [Example 48]
